Earlier results, collected in patent US20230058142A1, “LIQUID PHARMACEUTICAL COMPOSITION COMPRISING CYTISINE” (priority 2019, published 2023).

Target: nicotinic α4β2 receptors (Homo sapiens, UniProt P17787+P43681)
Conditions: read-out: Ki, affinity for nicotinic α4β2 receptors

Chain of nicotinic α4β2 receptors (P43681 29-627 limits assumed): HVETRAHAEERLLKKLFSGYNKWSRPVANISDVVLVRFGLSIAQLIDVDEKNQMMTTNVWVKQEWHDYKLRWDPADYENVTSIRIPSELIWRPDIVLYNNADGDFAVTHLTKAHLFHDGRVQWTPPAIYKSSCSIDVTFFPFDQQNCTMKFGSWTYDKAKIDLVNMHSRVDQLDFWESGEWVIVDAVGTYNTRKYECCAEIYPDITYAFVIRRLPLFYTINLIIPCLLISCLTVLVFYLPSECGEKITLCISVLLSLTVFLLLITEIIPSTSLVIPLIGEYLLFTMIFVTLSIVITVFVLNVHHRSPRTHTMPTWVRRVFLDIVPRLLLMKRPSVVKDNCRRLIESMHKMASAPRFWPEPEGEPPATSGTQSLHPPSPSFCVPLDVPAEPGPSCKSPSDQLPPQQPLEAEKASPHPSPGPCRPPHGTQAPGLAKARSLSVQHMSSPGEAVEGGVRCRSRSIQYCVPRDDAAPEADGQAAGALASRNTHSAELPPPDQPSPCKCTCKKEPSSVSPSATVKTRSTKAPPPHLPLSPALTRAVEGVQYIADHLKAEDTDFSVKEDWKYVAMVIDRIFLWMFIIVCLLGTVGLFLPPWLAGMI
Chain of nicotinic α4β2 receptors (P17787 26-502): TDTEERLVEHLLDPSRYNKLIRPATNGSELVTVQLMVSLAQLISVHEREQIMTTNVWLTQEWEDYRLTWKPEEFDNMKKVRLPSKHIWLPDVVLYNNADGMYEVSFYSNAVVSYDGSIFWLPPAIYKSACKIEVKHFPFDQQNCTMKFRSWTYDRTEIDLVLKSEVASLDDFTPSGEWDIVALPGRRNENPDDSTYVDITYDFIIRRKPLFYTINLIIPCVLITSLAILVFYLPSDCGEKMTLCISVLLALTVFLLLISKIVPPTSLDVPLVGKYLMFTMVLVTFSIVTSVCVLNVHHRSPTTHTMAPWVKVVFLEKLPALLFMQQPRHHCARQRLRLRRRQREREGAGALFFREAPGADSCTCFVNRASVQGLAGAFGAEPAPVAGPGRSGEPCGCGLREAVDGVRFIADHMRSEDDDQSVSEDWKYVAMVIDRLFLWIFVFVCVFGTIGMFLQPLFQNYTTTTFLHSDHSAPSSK

For `O=c1cccc2n1C[C@@H]1CNC[C@H]2C1` [Cytisine, (1R-cis)-1,2,3,4,5,6-hexahydro-1,5-methano-8H-pyrido[1,2-a][1,5]diazocin-8-one], the Ki is listed as 450 nM.
